Test results taken from PubChem BioAssay (NCI).
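Assay format: 96-well plates, 48-hour exposure. GI50 is the concentration that inhibits growth by half. At the TGI there is no net growth.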

What was measured:
Assay in all cases: DTP human tumour cell line panel, 48 h
[1] = system: MOLT-4 leukemia
[2] = system: UO-31 renal
[3] = system: OVCAR-5 ovarian
[4] = system: OVCAR-8 ovarian
[5] = system: CCRF-CEM leukemia
[6] = system: HCT-15 colon
[7] = system: TK-10 renal
[8] = system: SK-MEL-28 melanoma
[9] = system: OVCAR-4 ovarian
[10] = system: SR leukemia

Compound | GI50 [1] | TGI [1] | GI50 [2] | TGI [2] | GI50 [3] | TGI [3] | GI50 [4] | TGI [4] | GI50 [5] | TGI [5] | GI50 [6] | TGI [6] | GI50 [7] | TGI [7] | GI50 [8] | TGI [8] | GI50 [9] | TGI [9] | GI50 [10] | TGI [10]
COC(=O)c1ccc2c(c1)nc(-c1ccc(Cl)cc1)n2-c1cc(C(C)(C)C)[nH]n1 | 5.48 µM | > 100 µM | 3.35 µM | 44.1 µM | 12.9 µM | 60.1 µM | 7.33 µM | 58.2 µM | 4.91 µM | > 100 µM | 4.36 µM | > 100 µM | 6.94 µM | > 100 µM | 3.38 µM | 15.5 µM | 3.4 µM | > 100 µM | 3.23 µM | > 100 µM
Cn1c(=O)c(Cc2ccc(F)cc2F)cc2cnc(NC3CCOCC3)nc21 | > 21.2 µM | > 25 µM | 11.5 µM | > 25 µM | > 25 µM | > 25 µM | > 25 µM | > 25 µM | > 25 µM | > 25 µM | > 25 µM | > 25 µM | 14.5 µM | > 25 µM | > 25 µM | > 25 µM | > 21.7 µM | > 25 µM | > 25 µM | > 25 µM
Cc1ccc(/C=C(\C#N)n2nnc3cc(F)c(F)cc32)cc1 | 2.7 µM | 36.5 µM | 2.8 µM | 14.2 µM | 3.39 µM | > 100 µM | 2.26 µM | 6.93 µM | 1.81 µM | > 100 µM | 0.651 µM | 15.3 µM | 2.52 µM | 11.3 µM | 6.79 µM | > 100 µM | 2.58 µM | 15.4 µM | 0.391 µM | 13.9 µM
COC(=O)c1oc2c(C(=O)/C=C/c3ccc(OC)cc3)c(OCCCN3CCCCC3)ccc2c1C | 1.6 µM | 4.97 µM | 1.6 µM | 4.55 µM | 2.31 µM | 6.17 µM | 1.67 µM | 4.23 µM | 0.783 µM | 3.4 µM | 0.901 µM | 2.35 µM | 2.04 µM | 5.71 µM | 0.85 µM | 2.33 µM | 2.49 µM | 9.15 µM | 1.45 µM | 3.78 µM
COc1ccccc1Nc1nc(-c2cc3cccc(C(F)(F)F)c3oc2=O)cs1 | 0.5 µM | > 100 µM | 0.527 µM | > 57.1 µM | 0.572 µM | > 100 µM | 0.301 µM | > 100 µM | 0.291 µM | > 100 µM | 0.151 µM | > 100 µM | 13.5 µM | 81.2 µM | 1.64 µM | > 100 µM | 0.185 µM | > 63.3 µM | 0.084 µM | > 100 µM
Cn1cccc1-c1cc(-c2ccc(Br)cc2)nc(N)c1C#N | > 100 µM | > 100 µM | > 100 µM | > 100 µM | > 100 µM | > 100 µM | > 100 µM | > 100 µM | > 100 µM | > 100 µM | > 100 µM | > 100 µM | > 100 µM | > 100 µM | > 100 µM | > 100 µM | 77.2 µM | > 100 µM | 3.42 µM | 20.4 µM
